# Results published in ChEMBL document CHEMBL4011590, “Structure-activity relationship studies on 3,5-dinitrophenyl tetrazoles as antitubercular agents” (Eur J Med Chem, 2017).
# pIC50: −log10 of the molar value.
# Legend:
# [1] = system: Mycobacterium tuberculosis; test: Antimycobacterial activity against Mycobacterium tuberculosis H37Rv CNCTC My 331/88 after 14 days by micromethod; format: functional; conditions: H37Rv CNCTC My 331/88, 336 h
# [2] = system: Mycobacterium tuberculosis; test: Antimycobacterial activity against Mycobacterium tuberculosis H37Rv CNCTC My 331/88 after 21 days by micromethod; format: functional; conditions: H37Rv CNCTC My 331/88, 504 h
# Mycobacterium avium [3] = test: Antimycobacterial activity against Mycobacterium avium CNCTC My 330/80 after 14 days by micromethod; format: functional; conditions: CNCTC My 330/80, 336 h
# Mycobacterium avium [4] = test: Antimycobacterial activity against Mycobacterium avium CNCTC My 330/80 after 21 days by micromethod; format: functional; conditions: CNCTC My 330/80, 504 h
# Mycobacterium kansasii [5] = test: Antimycobacterial activity against Mycobacterium kansasii CNCTC My 235/80 after 7 days by micromethod; format: functional; conditions: CNCTC My 235/80, 168 h
# Mycobacterium kansasii [6] = test: Antimycobacterial activity against Mycobacterium kansasii CNCTC My 235/80 after 14 days by micromethod; format: functional; conditions: CNCTC My 235/80, 336 h
# Mycobacterium kansasii [7] = test: Antimycobacterial activity against Mycobacterium kansasii CNCTC My 235/80 after 21 days by micromethod; format: functional; conditions: CNCTC My 235/80, 504 h
# Mycobacterium kansasii [8] = test: Antimycobacterial activity against Mycobacterium kansasii isolate 6509/96 after 7 days by micromethod; format: functional; conditions: isolate 6509/96, 168 h
# Mycobacterium kansasii [9] = test: Antimycobacterial activity against Mycobacterium kansasii isolate 6509/96 after 14 days by micromethod; format: functional; conditions: isolate 6509/96, 336 h
# Mycobacterium kansasii [10] = test: Antimycobacterial activity against Mycobacterium kansasii isolate 6509/96 after 21 days by micromethod; format: functional; conditions: isolate 6509/96, 504 h
# CHO-K1 = test: Cytotoxicity against CHOK1 cells after 24 hrs by MTT assay; format: cell-based; conditions: Cricetulus griseus, CHO-K1, 24 h
# Escherichia coli = test: Antibacterial activity against Escherichia coli ATCC 8739 after 24 hrs by broth microdilution method; format: functional
# Klebsiella pneumoniae [11] = test: Antibacterial activity against Klebsiella pneumoniae HK11750/08 after 24 hrs by broth microdilution method; format: functional
# Klebsiella pneumoniae [12] = test: Antibacterial activity against extended spectrum beta-lactamase producing Klebsiella pneumoniae HK14368/08 after 24 hrs by broth microdilution method; format: functional
# Pseudomonas aeruginosa = test: Antibacterial activity against Pseudomonas aeruginosa ATCC 9027 after 24 hrs by broth microdilution method; format: functional
# Candida albicans = test: Antifungal activity against Candida albicans ATCC 44859 after 24 hrs by broth microdilution method; format: functional; conditions: ATCC 44859, 24 h
# Candida tropicalis = test: Antifungal activity against Candida tropicalis 156 after 24 hrs by broth microdilution method; format: functional; conditions: Candida tropicalis, 156, 24 h
# Pichia kudriavzevii = test: Antifungal activity against Candida krusei E28 after 24 hrs by broth microdilution method; format: functional; conditions: E28, 24 h
# Trichosporon asahii = test: Antifungal activity against Trichosporon asahii 1188 after 24 hrs by broth microdilution method; format: functional; conditions: Trichosporon asahii, 1188, 24 h
# Aspergillus fumigatus = test: Antifungal activity against Aspergillus fumigatus 231 after 24 hrs by broth microdilution method; format: functional; conditions: Aspergillus fumigatus, 231, 24 h
# Lichtheimia corymbifera = test: Antifungal activity against Absidia corymbifera 272 after 24 hrs by broth microdilution method; format: functional; conditions: Lichtheimia corymbifera, 272, 24 h
# [13] = system: Trichophyton mentagrophytes; test: Antifungal activity against Trichophyton mentagrophytes 445 after 72 hrs by broth microdilution method; format: functional; conditions: Trichophyton mentagrophytes, 445, 72 h
# Nakaseomyces glabratus = test: Antifungal activity against Candida glabrata 20/I after 24 hrs by broth microdilution method; format: functional
# Staphylococcus aureus [14] = test: Antibacterial activity against Staphylococcus aureus ATCC 6538 after 24 hrs by broth microdilution method; format: functional; conditions: ATCC 6538, 24 h
# Staphylococcus aureus [15] = test: Antibacterial activity against methicillin-resistant Staphylococcus aureus HK5996/08 after 24 hrs by broth microdilution method; format: functional; conditions: HK5996/08, 24 h
# [16] = system: Staphylococcus epidermidis; test: Antibacterial activity against Staphylococcus epidermidis HK6966/08 after 24 hrs by broth microdilution method; format: functional; conditions: HK6966/08, 24 h
# Enterococcus sp. = test: Antibacterial activity against Enterococcus sp. HK14365/08 after 24 hrs by broth microdilution method; format: functional; conditions: HK14365/08, 24 h
Molecule,MIC99 [1] [µM],MIC99 [2] [µM],MIC99 (Mycobacterium avium [3]) [µM],MIC99 (Mycobacterium avium [4]) [µM],MIC99 (Mycobacterium kansasii [5]) [µM],MIC99 (Mycobacterium kansasii [6]) [µM],MIC99 (Mycobacterium kansasii [7]) [µM],MIC99 (Mycobacterium kansasii [8]) [µM],MIC99 (Mycobacterium kansasii [9]) [µM],MIC99 (Mycobacterium kansasii [10]) [µM],pIC50 (CHO-K1),also measured
O=[N+]([O-])c1cc(-c2nnn(Cc3ccc(Cl)c(Cl)c3)n2)cc([N+](=O)[O-])c1,0.125,0.125,4,8,0.25,0.5,1,0.25,0.5,0.5,4.43,
GENTAMICIN,,,,,,,,,,,,MIC (Escherichia coli): 260 nM; MIC (Klebsiella pneumoniae [11]): 260 nM; MIC (Klebsiella pneumoniae [12]): 260 nM; MIC (Pseudomonas aeruginosa): 1000 nM
O=[N+]([O-])c1cc(-c2nnn(CSc3nnnn3-c3ccc(Br)cc3)n2)cc([N+](=O)[O-])c1,0.03,0.03,,,0.125,0.25,0.5,0.06,0.125,0.25,4.54,
O=[N+]([O-])c1cc(Sc2nnnn2Cc2ccccc2)cc([N+](=O)[O-])c1,1,2,32,62.5,8,8,16,2,4,4,3.90,
O=[N+]([O-])c1cc(-c2nnn(CSc3nnnn3C3CCCCC3)n2)cc([N+](=O)[O-])c1,0.03,0.03,8,16,0.06,0.06,0.06,0.03,0.03,0.03,3.85,
O=[N+]([O-])c1cc(-c2nnn(Cc3ccccc3)n2)cc([N+](=O)[O-])c1,0.5,1,8,8,1,2,2,1,2,2,3.82,
OC(Cn1cncn1)(Cn1cncn1)c1ccc(F)cc1F [FLUCONAZOLE],,,,,,,,,,,,MIC (Candida albicans): 0.82 µM; MIC (Candida tropicalis): 1.6 µM; MIC (Pichia kudriavzevii): 105 µM; MIC (Trichosporon asahii): 210 µM; MIC (Aspergillus fumigatus): > 500 µM; MIC (Lichtheimia corymbifera): > 500 µM; MIC [13]: 105 µM
C[C@@H]1[C@H](O)[C@@H](C)/C=C/C=C/C=C/C=C/C=C/C=C/C=C/[C@H](O[C@@H]2O[C@H](C)[C@@H](O)[C@H](N)[C@@H]2O)C[C@@H]2O[C@](O)(C[C@@H](O)C[C@@H](O)[C@H](O)CC[C@@H](O)C[C@@H](O)CC(=O)O[C@H]1C)C[C@H](O)[C@H]2C(=O)O [AMPHOTERICIN B],,,,,,,,,,,,MIC (Candida albicans): 0.54 µM; MIC (Candida tropicalis): 0.54 µM; MIC (Pichia kudriavzevii): 1 µM; MIC (Nakaseomyces glabratus): 0.54 µM; MIC (Trichosporon asahii): 0.27 µM; MIC (Aspergillus fumigatus): 0.54 µM; MIC (Lichtheimia corymbifera): 1 µM; MIC [13]: 0.54 µM
O=[N+]([O-])c1cc(-c2nnn(Cc3cccc(F)c3)n2)cc([N+](=O)[O-])c1,1,1,8,16,1,2,2,0.5,1,2,3.50,
O=[N+]([O-])c1cc(Sc2nnnn2C2CCCCC2)cc([N+](=O)[O-])c1,1,1,32,32,1,1,1,1,1,1,3.82,
CN[C@H](CC(C)C)C(=O)N[C@H]1C(=O)N[C@@H](CC(N)=O)C(=O)N[C@H]2C(=O)N[C@H]3C(=O)N[C@H](C(=O)N[C@H](C(=O)O)c4cc(O)cc(O)c4-c4cc3ccc4O)[C@H](O)c3ccc(c(Cl)c3)Oc3cc2cc(c3O[C@@H]2O[C@H](CO)[C@@H](O)[C@H](O)[C@H]2O[C@H]2C[C@](C)(N)[C@H](O)[C@H](C)O2)Oc2ccc(cc2Cl)[C@H]1O [VANCOMYCIN],,,,,,,,,,,,MIC (Staphylococcus aureus [14]): 0.35 µM; MIC (Staphylococcus aureus [15]): 0.35 µM; MIC [16]: 0.35 µM; MIC (Enterococcus sp.): 0.7 µM
